Reference: patent publication US11576381B2, “Composition and a method of using the composition to increase wheat yield” (priority 2019, dated 2023)
Values joined by “and” are separate entries in the source; they are usually repeats but may differ in a detail not shown here. Equal values may be shown once.

What was measured:
grasses = assay: Grass control in QPE-tolerant wheat treated with herbicides; format: in vivo
Protocol: (§1) Yield of QPE-tolerant wheat in bushels per acre was measured under the following conditions: where no QPE was applied, where QPE was applied alone, where one or more broadleaf herbicides were applied, and where a combination of a QPE source and a broadleaf herbicide were applied together. For each test condition, the level of both grass control and broadleaf control was recorded. Finally, the application rate of each active substance was recorded. One QPE source is Aggressor™ which comprises Quizalofop-P-ethyl 10.3%.

broadleaf weeds = assay: Broadleaf weed control in QPE-tolerant wheat treated with herbicides; format: in vivo
Protocol: as §1

QPE-tolerant wheat = assay: Yield of QPE-tolerant wheat in bushels per acre; format: in vivo
Protocol: as §1

[1] = soil; cited from earlier work
[2] = Treatment B Rate/Acre 1.00 lb ai/acre
[3] = Treatment B Rate/Acre .50 lb ai/acre
[4] = Treatment B Rate/Acre 3 fl oz/acre
[5] = Treatment B Rate/Acre 4 fl oz/acre
[6] = Treatment B Rate/Acre 5 fl oz/acre
[7] = Treatment B Rate/Acre 2 oz/acre
[8] = Treatment B Rate/Acre 4.75/acre
[9] = Treatment B Rate/Acre .90 oz/acre
[10] = Treatment B Rate/Acre .60 oz/acre
[11] = Treatment B Rate/Acre .66 oz/acre
[12] = Treatment B Rate/Acre .30 oz/acre

CNC.O=C(O)COc1ccc(Cl)cc1Cl [2,4-D Amine]
Grass Control (grasses; [2]): 0% | Grass Control (grasses; [3]): 0% | Broadleaf Weed Control (broadleaf weeds; [2]): 90% | Broadleaf Weed Control (broadleaf weeds; [3]): 75% | Yield (QPE-tolerant wheat; [2]): 56.8 Bu/acre | Yield (QPE-tolerant wheat; [3]): 55.7 Bu/acre

COc1c(Cl)ccc(Cl)c1C(=O)O [Dicamba]
Grass Control (grasses; [4]): 0% | Grass Control (grasses; [5]): 0% | Grass Control (grasses; [6]): 0% | Broadleaf Weed Control (broadleaf weeds; [4]): 90% | Broadleaf Weed Control (broadleaf weeds; [5]): 93% | Broadleaf Weed Control (broadleaf weeds; [6]): 96% | Yield (QPE-tolerant wheat; [4]): 56.7 Bu/acre | Yield (QPE-tolerant wheat; [5]): 57.9 Bu/acre | Yield (QPE-tolerant wheat; [6]): 58.4 Bu/acre

COc1nn(C(=O)NS(=O)(=O)c2ccccc2OC(F)(F)F)c(=O)n1C [Flucarbazone]
Grass Control (grasses; [7]): 65% | Broadleaf Weed Control (broadleaf weeds; [7]): 55% | Yield (QPE-tolerant wheat; [7]): 67.3 Bu/acre

CNC.Cc1cc(Cl)ccc1OCC(=O)O [MCPA Amine]
Grass Control (grasses; [2]): 0% | Grass Control (grasses; [3]): 0% | Broadleaf Weed Control (broadleaf weeds; [2]): 93% | Broadleaf Weed Control (broadleaf weeds; [3]): 78% | Yield (QPE-tolerant wheat; [2]): 56.9 Bu/acre | Yield (QPE-tolerant wheat; [3]): 52.4 Bu/acre

COc1cc(OC)nc(NC(=O)NS(=O)(=O)c2cc(CNS(C)(=O)=O)ccc2C(=O)O)n1 [Mesosulfuron]
Grass Control (grasses; [8]): 35% | Broadleaf Weed Control (broadleaf weeds; [8]): 50% | Yield (QPE-tolerant wheat; [8]): 60.4 Bu/acre

CCCOc1nn(C(=O)[N-]S(=O)(=O)c2ccccc2C(=O)OC)c(=O)n1C.[Na+] [Propoxycarbazone]
Grass Control (grasses; [9]): 45% | Broadleaf Weed Control (broadleaf weeds; [9]): 65% | Yield (QPE-tolerant wheat; [9]): 63.2 Bu/acre

COc1nc(C)nc(NC(=O)NS(=O)(=O)c2ccccc2CCC(F)(F)F)n1 [Prosulfuron]
Grass Control (grasses; [10]): 0% | Broadleaf Weed Control (broadleaf weeds; [10]): 85% | Yield (QPE-tolerant wheat; [10]): 59.2 Bu/acre

COc1cc(OC)n2nc(NS(=O)(=O)c3c(C(F)(F)F)ccnc3OC)nc2n1 [Pyroxsulam]
Grass Control (grasses; [7]): 70% | Broadleaf Weed Control (broadleaf weeds; [7]): 30% | Yield (QPE-tolerant wheat; [7]): 60.3 Bu/acre

CCOC(=O)[C@@H](C)Oc1ccc(Oc2cnc3cc(Cl)ccc3n2)cc1 [Quizalofop-p-ethyl]
Koc [1]: 510 and 570

CCS(=O)(=O)c1nc2ccccn2c1S(=O)(=O)NC(=O)Nc1nc(OC)cc(OC)n1 [Sulfosulfuron]
Grass Control (grasses; [11]): 55% | Broadleaf Weed Control (broadleaf weeds; [11]): 60%

COc1nc(C)nc(N(C)C(=O)NS(=O)(=O)c2ccccc2C(=O)O)n1 [Tribenuron]
Grass Control (grasses; [12]): 0% | Broadleaf Weed Control (broadleaf weeds; [12]): 93% | Yield (QPE-tolerant wheat; [12]): 58.4 Bu/acre
